These results are taken from ChEMBL document CHEMBL1151875, “Design and synthesis of a novel tyrosine kinase inhibitor template” (Bioorg Med Chem, 2009).

Each structure is given as a SMILES string. pIC50: −log10 of the molar value.

Experiment [1] has as its target ALK tyrosine kinase receptor (Homo sapiens, UniProt Q9UM73). The experiment can be described thus: Inhibition of 6xHis-tagged human NPM-ALK expressed in insect cells.
For a further experiment, the target named is Insulin receptor (Homo sapiens, UniProt P06213). Briefly: Inhibition of human recombinant IRK.
Experiment [2] addresses Hepatocyte growth factor receptor (Homo sapiens, UniProt P08581). The experiment can be described thus: Inhibition of recombinant MET.
Experiment [3] addresses Insulin-like growth factor 1 receptor (Homo sapiens, UniProt P08069). Briefly: Inhibition of recombinant IGFR1.
For experiment [4], the target named is Tyrosine-protein kinase JAK2 (Homo sapiens, UniProt O60674). The experiment can be described thus: Inhibition of recombinant JAK2.

In general, pIC50 refers to the negative decadic logarithm of the IC50, by convention in mol/L.

ALK tyrosine kinase receptor, sequence (Q9UM73 19-1620 limits assumed): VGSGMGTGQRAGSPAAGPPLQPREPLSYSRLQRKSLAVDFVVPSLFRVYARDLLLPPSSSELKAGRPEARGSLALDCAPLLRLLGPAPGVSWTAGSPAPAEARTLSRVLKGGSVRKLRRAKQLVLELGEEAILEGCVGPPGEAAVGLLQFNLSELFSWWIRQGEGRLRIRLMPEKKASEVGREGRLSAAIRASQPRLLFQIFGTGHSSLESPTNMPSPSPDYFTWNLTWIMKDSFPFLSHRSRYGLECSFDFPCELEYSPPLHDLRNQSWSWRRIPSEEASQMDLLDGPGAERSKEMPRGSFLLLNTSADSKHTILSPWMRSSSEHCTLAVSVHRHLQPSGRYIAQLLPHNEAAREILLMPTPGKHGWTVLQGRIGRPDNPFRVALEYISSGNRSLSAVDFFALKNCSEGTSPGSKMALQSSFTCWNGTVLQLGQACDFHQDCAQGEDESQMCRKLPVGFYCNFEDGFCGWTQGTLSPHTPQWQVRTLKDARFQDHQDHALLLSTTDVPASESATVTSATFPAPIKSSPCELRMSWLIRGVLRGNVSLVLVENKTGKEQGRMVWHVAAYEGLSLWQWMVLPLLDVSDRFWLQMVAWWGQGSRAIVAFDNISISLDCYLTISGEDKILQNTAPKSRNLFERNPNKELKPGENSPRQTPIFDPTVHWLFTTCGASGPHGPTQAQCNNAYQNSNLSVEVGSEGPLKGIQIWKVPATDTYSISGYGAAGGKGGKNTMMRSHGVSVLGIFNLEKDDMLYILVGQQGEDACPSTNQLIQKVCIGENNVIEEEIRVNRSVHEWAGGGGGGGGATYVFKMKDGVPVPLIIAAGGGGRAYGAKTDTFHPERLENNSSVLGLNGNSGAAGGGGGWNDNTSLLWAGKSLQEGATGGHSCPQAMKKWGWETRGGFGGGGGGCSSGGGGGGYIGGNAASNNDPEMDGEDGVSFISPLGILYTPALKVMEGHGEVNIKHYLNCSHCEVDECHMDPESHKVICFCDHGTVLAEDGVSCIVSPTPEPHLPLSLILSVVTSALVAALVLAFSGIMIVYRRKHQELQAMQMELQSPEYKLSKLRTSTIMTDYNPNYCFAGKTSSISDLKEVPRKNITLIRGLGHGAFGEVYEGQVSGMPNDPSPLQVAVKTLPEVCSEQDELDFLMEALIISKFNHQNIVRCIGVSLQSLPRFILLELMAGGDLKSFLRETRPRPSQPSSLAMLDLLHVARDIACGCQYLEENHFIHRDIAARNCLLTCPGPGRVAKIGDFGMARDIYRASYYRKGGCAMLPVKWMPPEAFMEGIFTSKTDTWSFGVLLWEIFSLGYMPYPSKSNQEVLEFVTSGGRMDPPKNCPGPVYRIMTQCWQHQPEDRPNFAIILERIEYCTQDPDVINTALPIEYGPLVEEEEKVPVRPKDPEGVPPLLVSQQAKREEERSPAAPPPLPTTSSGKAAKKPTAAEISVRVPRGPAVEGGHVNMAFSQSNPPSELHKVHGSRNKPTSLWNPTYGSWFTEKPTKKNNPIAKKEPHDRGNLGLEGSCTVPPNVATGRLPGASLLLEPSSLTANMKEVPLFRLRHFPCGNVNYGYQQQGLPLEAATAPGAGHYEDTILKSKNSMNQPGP
Tyrosine-protein kinase JAK2, sequence (O60674 whole entry): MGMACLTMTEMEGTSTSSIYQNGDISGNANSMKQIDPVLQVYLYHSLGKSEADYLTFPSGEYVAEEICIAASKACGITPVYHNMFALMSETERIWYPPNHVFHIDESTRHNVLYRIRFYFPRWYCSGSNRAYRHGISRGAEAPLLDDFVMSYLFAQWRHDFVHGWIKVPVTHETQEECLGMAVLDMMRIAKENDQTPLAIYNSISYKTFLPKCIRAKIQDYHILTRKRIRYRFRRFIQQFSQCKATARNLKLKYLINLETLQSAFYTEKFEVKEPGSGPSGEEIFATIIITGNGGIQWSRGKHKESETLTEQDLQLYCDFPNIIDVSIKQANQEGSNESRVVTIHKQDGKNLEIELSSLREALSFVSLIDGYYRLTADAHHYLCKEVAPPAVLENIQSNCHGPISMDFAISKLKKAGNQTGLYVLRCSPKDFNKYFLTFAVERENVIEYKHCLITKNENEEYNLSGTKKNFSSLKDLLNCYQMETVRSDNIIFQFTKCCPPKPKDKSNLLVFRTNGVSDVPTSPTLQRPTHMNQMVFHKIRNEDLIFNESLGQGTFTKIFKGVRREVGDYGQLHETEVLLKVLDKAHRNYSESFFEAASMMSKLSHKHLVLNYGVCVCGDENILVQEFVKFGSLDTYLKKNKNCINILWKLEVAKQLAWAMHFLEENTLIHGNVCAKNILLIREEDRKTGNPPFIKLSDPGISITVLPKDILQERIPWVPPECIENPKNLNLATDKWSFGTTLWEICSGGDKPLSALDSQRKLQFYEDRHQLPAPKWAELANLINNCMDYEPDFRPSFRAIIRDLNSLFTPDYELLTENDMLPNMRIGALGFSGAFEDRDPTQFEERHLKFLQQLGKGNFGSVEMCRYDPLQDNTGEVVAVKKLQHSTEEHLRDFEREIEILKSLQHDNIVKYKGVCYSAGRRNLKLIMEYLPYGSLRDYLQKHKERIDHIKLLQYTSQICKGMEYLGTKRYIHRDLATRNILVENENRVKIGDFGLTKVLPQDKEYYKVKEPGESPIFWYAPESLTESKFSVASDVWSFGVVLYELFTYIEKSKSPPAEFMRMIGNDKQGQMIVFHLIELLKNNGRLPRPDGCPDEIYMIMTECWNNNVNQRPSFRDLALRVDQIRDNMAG
Insulin-like growth factor 1 receptor, sequence (P08069 31-736 limits assumed): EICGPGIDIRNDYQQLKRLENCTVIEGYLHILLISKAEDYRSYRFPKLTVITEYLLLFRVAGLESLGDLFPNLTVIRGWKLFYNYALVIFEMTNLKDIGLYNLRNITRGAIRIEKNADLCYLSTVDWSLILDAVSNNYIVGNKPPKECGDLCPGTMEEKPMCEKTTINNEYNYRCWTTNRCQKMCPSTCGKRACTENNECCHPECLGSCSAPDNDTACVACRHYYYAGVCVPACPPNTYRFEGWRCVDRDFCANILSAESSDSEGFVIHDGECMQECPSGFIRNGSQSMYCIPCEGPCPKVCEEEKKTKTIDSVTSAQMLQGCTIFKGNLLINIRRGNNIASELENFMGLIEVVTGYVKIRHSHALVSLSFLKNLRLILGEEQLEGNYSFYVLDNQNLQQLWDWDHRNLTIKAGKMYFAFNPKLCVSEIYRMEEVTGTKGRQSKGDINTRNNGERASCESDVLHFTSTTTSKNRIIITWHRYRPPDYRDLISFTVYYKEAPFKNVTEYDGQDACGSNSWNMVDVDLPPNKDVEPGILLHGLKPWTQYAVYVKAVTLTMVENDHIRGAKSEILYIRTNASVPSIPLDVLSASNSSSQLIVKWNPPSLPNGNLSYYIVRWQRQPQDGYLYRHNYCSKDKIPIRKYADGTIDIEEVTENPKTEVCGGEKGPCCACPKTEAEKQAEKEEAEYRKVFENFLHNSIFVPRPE
Insulin-like growth factor 1 receptor, sequence (P08069 741-1367 limits assumed): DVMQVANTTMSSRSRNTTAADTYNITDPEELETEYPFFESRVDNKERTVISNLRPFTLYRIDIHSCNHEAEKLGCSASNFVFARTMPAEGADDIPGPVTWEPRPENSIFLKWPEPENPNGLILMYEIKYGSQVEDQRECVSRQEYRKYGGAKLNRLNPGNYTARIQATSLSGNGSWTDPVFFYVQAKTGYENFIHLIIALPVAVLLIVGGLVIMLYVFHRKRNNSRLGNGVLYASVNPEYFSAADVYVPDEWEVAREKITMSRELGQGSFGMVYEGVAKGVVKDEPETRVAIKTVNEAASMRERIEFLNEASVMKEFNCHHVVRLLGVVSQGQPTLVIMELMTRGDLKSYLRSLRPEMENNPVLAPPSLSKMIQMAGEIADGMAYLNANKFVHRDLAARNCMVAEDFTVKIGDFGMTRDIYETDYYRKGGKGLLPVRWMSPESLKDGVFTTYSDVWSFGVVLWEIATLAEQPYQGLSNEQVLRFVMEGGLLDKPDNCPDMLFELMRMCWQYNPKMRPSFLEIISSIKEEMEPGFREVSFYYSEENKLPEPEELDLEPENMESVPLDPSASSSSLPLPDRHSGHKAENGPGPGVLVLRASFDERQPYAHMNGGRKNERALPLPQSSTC

Consider `Brc1ccc2[nH]c3c(c2c1)CCN(CC(c1ccccc1)c1ccccc1)c1nccc(I)c1-3`, for which the pIC50 is 5.30 in experiment [1], below 4.40 at Insulin receptor and 5.07 in experiment [2].
In the case of `COc1nc(C)cc2c1-c1[nH]c3cc(N4CCN(C)CC4)ccc3c1CCN2CCc1ccccc1`, the pIC50 in experiment [1] is 5.29; at Insulin receptor it was 5.46; in experiment [3], 5.35; in experiment [4], 5.29; in experiment [2], 5.26.
Turning to `Clc1nccc2c1-c1[nH]c3ccc(Br)cc3c1CCN2CC(c1ccccc1)c1ccccc1`, the pIC50 (in experiment [1]; on Insulin receptor; in experiment [2]) was below 4.40 each time.
Take `C[C@@H](c1ccccc1)N1CCc2c([nH]c3ccc(Br)cc23)-c2c1ccnc2Cl`: the pIC50 was 5.24 in experiment [1], 4.92 at Insulin receptor and 4.89 in experiment [2].
In the case of `Oc1ccc(CCN2CCc3c([nH]c4ccc(Br)cc34)-c3c(I)ccnc32)cc1`, the pIC50 in experiment [1] is 5.21; on Insulin receptor, 4.95; in experiment [2], 5.01.
For `Cc1cc2c(c(Cl)n1)-c1[nH]c3ccccc3c1CCN2CCc1ccccc1`, the pIC50 in experiment [1] is 4.67; on Insulin receptor, 4.52; in experiment [3] it was 4.61; in experiment [4] it was 4.47; in experiment [2], 4.58.
As to `C[C@@H](c1ccccc1)N1CCc2c([nH]c3ccc(Br)cc23)-c2c(I)ccnc21`, the pIC50 was 5.08 in experiment [1], below 4.40 at Insulin receptor and below 4.40 in experiment [2].
Take `Clc1nccc2c1-c1[nH]c3ccc(Br)cc3c1CCN2CCc1c[nH]c2ccccc12`: the results for the pIC50 (in experiment [1]; at Insulin receptor; in experiment [2]) were 5.03, below 4.40 and below 4.40, respectively.
On to `Cc1cc(Cl)c2c(n1)N(CCc1ccccc1)CCc1c-2[nH]c2ccccc12`, for which the pIC50 in experiment [1] was 4.93; at Insulin receptor, 4.70; in experiment [3], 4.90; in experiment [4], below 4.40; in experiment [2], 4.91.
The matching figures for `COc1cc(C)nc2c1-c1[nH]c3ccccc3c1CCN2CCc1ccccc1`: below 4.40, below 4.40, below 4.40, below 4.40 and below 4.40.
For `COc1nc(C)cc2c1-c1[nH]c3ccccc3c1CCN2CCc1ccccc1`, in that order: below 4.40, below 4.40, below 4.40, below 4.40 and below 4.40.
Take `Cc1cc2c(c(=O)[nH]1)-c1[nH]c3ccccc3c1CCN2CCc1ccccc1`: the pIC50 in experiment [1] is 4.74; on Insulin receptor, 4.81; in experiment [3], 4.93; in experiment [4], 4.77; in experiment [2], 4.71.
For the molecule `Oc1ccc(CCN2CCc3c([nH]c4ccc(Br)cc34)-c3c2ccnc3Cl)cc1`, the pIC50 in experiment [1] is 5.15; on Insulin receptor, below 4.40; in experiment [2] it was 4.90.
